# Source: patent US20260103721A1, “GENES CONTROLLING BARRIER FORMATION IN ROOTS” (The Regents of the University of California, priority 2022, published 2026)
# Experiments:
# Type in all cases: in vivo, Solanum lycopersicum
# [1] = system: exodermal lignin cap (apoplastic barrier) of tomato root; assay: Apoplastic tracer assay with propidium iodide (PI); conditions: 200 μM PA 24 hours, then PI 30 minutes
# Procedure: Seeds of M82 were grown in 1% MS+1% sucrose. Four days after germination, plants were transferred to new MS square plates with/without 200 μM of piperonylic acid (Sigma P49805-5G) and 200 μM piperonylic acid plus 10 mM monolignols (Sigma Aldrich 223735-100MG,404586-100MG) for 24 hours in the dark, with DMSO as the solvent. […] The roots were washed in water and one cm segments from the root tip were embedded in 3% agarose and made sections of 150-200 μM using a vibratome (Leica VT1000 S). Confocal Laser Scanning microscopy was performed on a Zeiss LSM700 confocal with the 20× objective, at 405 nm excitation and 600-650 nm detection.
# tomato root = assay: Root growth after 24 h piperonylic acid treatment; conditions: 200 μM PA, 4-day-old plants, newly grown root zone after transfer
# Procedure: FIG. 7A-B (also referred to as Supplemental FIG. 2 in technical section). […] A. Schematic representation of the experimental design to test the PA. 4-day-old plants after germination were transferred to MS media+1% sucrose with and without 200 μM of PA. After 24 hours, root growth was measured for the part of the root that grew after transferring. Orange horizontal bar=newly grown root after transferring. B. Root growth after 24H in control and PA treatment for the newly root zone after transferring (statistical significance test determined by ANOVA p-value 0.05).
# Seeds of M82 were grown in 1% MS+1% sucrose. Four days after germination, plants were transferred to new MS square plates with/without 200 μM of piperonylic acid (Sigma P49805-5G) and 200 μM piperonylic acid plus 10 mM monolignols (Sigma Aldrich 223735-100MG,404586-100MG) for 24 hours in the dark, with DMSO as the solvent. Three cm segments from the root tip including the root meristem were exposed to 15 μg/mL PI (P4170; Sigma) in the dark at 30° C. for 1 h. The roots were washed in water and one cm segments from the root tip were embedded in 3% agarose and made sections of 150-200 μM using a vibratome (Leica VT1000 S). Confocal Laser Scanning microscopy was performed on a Zeiss LSM700 confocal with the 20× objective, at 405 nm excitation and 600-650 nm detection.
# [2] = system: root lignin biosynthesis within the endodermis and exodermis; assay: Root lignin deposition (basic fuchsin staining) after PA treatment; conditions: 200 μM PA, 24 hours
# Procedure: For root sections stained with basic fuchsin (Fisher scientific Cat no 632-99-5) and calcofluor white (PhytoTechnology laboratories Cat no 4404-43-7), 1 cm segments from the root tip were embedded in 3% agarose and were sectioned at 150-200 μM using a vibratome (Leica VT1000 S). The sections were stained in Clearsee buffer (Ursache et al. 2018) with basic fuchsin for 30 minutes then washed two times. In some cases, the sections were stained with calcofluor after basic fuchsin for 30 minutes and washed two times. Confocal Laser Scanning microscopy was performed on a Zeiss LSM700 confocal with the 20× objective, basic fuchsin: 550-561 nm excitation and 570-650 nm detection. Root samples were mounted in ClearSee (Ursache et al., 2018) and scanned and imaged on a Zeiss Observer Z1 with the 20× or 40× objective, basic fuchsin: 550-561 nm excitation and 570-650 nm detection and calcofluor white: 405 nm excitation and 425-475 nm detection.
# Seeds of M82 were grown in 1% MS+1% sucrose. Four days after germination, plants were transferred to new MS square plates with/without 200 μM of piperonylic acid (Sigma P49805-5G) and 200 μM piperonylic acid plus 10 mM monolignols (Sigma Aldrich 223735-100MG,404586-100MG) for 24 hours in the dark, with DMSO as the solvent. […]
compound,measurement,setting,value
"O=C(O)c1ccc2c(c1)OCO2 [PA, Piperonylic acid]",PI penetration into cortex cells,[1],Pt was observed after exposure within cortex cells
same,PI signal in the exodermal lignin cap (PI blockage),[1]; control versus PA-treated,more intense in control relative to PA-treated plants
same,root growth,tomato root,does not interfere with root growth
same,root growth,tomato root; listed as Piperonylic acid,does not affect root growth
same,root lignin biosynthesis within the endodermis and exodermis,[2],does disrupt root lignin biosynthesis
